Test results reported in US20170119776A1, “CHIRAL 2,5-DISUBSTITUTED CYCLOPENTANECARBOXYLIC ACID DERIVATIVES AND USE THEREOF” (BAYER PHARMA AKTIENGESELLSCHAFT, priority 2014, published 2017).

What was measured:
Assay type in all cases: biochemical
MMP-2 of the rat = assay: In vitro MMP-2 inhibition test of the rat
Text: (§1) The activity strength of the compounds according to the invention towards other MMPs (and therefore their selectivity) is likewise ascertained in in vitro inhibition tests. The MMP-mediated amidolytic cleavage of a suitable peptide substrate also leads here to a fluorescent light increase. The signal intensity of the fluorescent light is directly proportional to the enzyme activity. The active concentration of a test compound at which half of the enzyme is inhibited (50% signal intensity of the fluorescent light) is given as IC50 value.
Recombinant MMP-2 of the rat (R&D Systems, 924-MP) is chemically activated in accordance with the manufacturer's instructions using APMA. […] of the test compound to be analysed (as a solution in DMSO, suitable concentrations e.g. 1 nM to 30 μM) is pipetted into 24 μl of activated enzyme (final concentration e.g. 1 nM) in reaction buffer (50 mM Tris/HCl pH 7.5, 10 mM CaCl2, 150 mM NaCl, 0.05% Brij®-35) in a white 384-hole microtiter plate (MTP). The enzymatic reaction is started by adding the intramolecularly quenched substrate Mca-Pro-Leu-Gly-Leu-Dpa(Dnp)-Ala-Arg-NH2 (final concentration e.g. 10 μM; R&D Systems, ES-001), such that a total test volume of 50 μl results. The progress of the MMP-2 reaction is measured by measuring the fluorescence intensity (excitation 320 nm, emission 410 nm) over a suitable period (e.g. over 120 min at a temperature of 32° C.).
(§2) Tables 3A and 3B below give the IC50 values from these tests for the inhibition of rodent MMPs for representative embodiment examples of the present invention and also for two structurally related comparison compounds from the prior art (as racemate and separated enantiomer)→(in part as average values from several independent individual determinations and rounded to two significant places). The IC50 values were determined for racemates and enantiomers from differently generated DMSO stock solutions. Whereas an automatically created DMSO stock solution from the internal substance logistics was used for racemates by means of a standard method, in the case of enantiomers, in each case a freshly produced, manually prepared DMSO stock solution was used for a more precise direct comparison of the enantiomers with one another.

MMP-7 of the mouse = biological target: T1, MMP-7 of the mouse (Mus musculus, UniProt Q10738); assay: In vitro MMP-7 inhibition test of the mouse
T1 construct: purchased R&D Systems 2967-MP
T1 sequence (Q10738 95-264): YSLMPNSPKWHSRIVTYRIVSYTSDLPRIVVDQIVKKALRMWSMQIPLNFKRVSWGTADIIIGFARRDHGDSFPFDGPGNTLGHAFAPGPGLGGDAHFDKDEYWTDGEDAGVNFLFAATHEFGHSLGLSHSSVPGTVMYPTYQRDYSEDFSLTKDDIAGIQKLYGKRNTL
Text: as §1
Recombinant MMP-7 of the mouse (R&D Systems, 2967-MP) is chemically activated in accordance with the manufacturer's instructions using APMA. 1 μl of the test compound to be analysed (as a solution in DMSO, suitable concentrations e.g. 1 nM to 30 μM) is pipetted into 24 μl of activated enzyme (final concentration e.g. 0.5 nM) in reaction buffer (50 mM Tris/HCl pH 7.5, 10 mM CaCl2, 150 mM NaCl, 0.05% Brij®-35) in a white 384-hole microtiter plate (MTP). The enzymatic reaction is started by adding the intramolecularly quenched substrate Mca-Lys-Pro-Leu-Gly-Leu-Dpa(Dnp)-Ala-Arg-NH2 (final concentration e.g. 5 μM; R&D Systems, ES-010), such that a total test volume of 50 μl results. The progress of the MMP-7 reaction is measured by measuring the fluorescence intensity (excitation 320 nm, emission 410 nm) over a suitable period (e.g. over 120 min at a temperature of 32° C.).
as §2

MMP-1 = biological target: T2, MMP-1 (Homo sapiens, UniProt P03956); assay: In vitro MMP-1 inhibition test
T2 construct: purchased R&D Systems 901-MP
T2 sequence (P03956 100-469): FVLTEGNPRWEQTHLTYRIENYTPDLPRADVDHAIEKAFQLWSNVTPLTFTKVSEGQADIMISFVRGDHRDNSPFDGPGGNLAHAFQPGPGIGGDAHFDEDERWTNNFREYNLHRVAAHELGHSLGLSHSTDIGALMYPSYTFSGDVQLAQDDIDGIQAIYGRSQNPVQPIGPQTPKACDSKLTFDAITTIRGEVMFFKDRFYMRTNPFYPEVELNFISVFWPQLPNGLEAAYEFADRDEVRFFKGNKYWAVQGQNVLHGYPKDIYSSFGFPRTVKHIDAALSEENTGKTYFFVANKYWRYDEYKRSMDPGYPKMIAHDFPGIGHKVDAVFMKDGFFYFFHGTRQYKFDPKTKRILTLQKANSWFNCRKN
Text: as §1
Recombinant MMP-1 (R&D Systems, 901-MP) is chemically activated in accordance with the manufacturer's instructions by using APMA. 1 μl of the test compound to be analysed (as a solution in DMSO, suitable concentrations e.g. 1 nM to 30 μM) is pipetted into 24 μl of activated enzyme (final concentration e.g. 2 nM) in reaction buffer (50 mM Tris/HCl pH 7.5, 10 mM CaCl2, 150 mM NaCl, 0.05% Brij®-35) in a white 384-hole microtiter plate (MTP). The enzymatic reaction is started by adding the intramolecularly quenched substrate Mca-Pro-Leu-Gly-Leu-Dpa(Dnp)-Ala-Arg-NH2 (final concentration e.g. 10 μM; R&D Systems, ES-001), such that a total test volume of 50 μl results. The progress of the MMP-1 reaction is measured by measuring the fluorescence intensity (excitation 320 nm, emission 410 nm) over a suitable period (e.g. over 120 min at a temperature of 32° C.).
The IC50 values were determined for racemates and enantiomers from differently generated DMSO stock solutions. Whereas an automatically produced DMSO stock solution from the internal substance logistics was used for racemates by means of a standard method, in the case of enantiomers a freshly produced, manually prepared DMSO stock solution was used in each case for a more precise direct comparison of the enantiomers with one another.

Compound	IC50 (MMP-2 of the rat)	IC50 (MMP-7 of the mouse)	IC50 (MMP-1)
O=C(O)[C@H]1[C@H](Cn2nnc3ccccc3c2=O)CC[C@@H]1C(=O)c1ccc(-c2ccc(Cl)cc2)cc1 (racemic) [Comparative Example A-1, (1RS,2RS,5SR)-2-[(4′-chlorobiphenyl-4-yl)carbonyl]-5-[(4-oxo-1,2,3-benzotriazin-3(4H)-yl)methyl]cyclopentanecarboxylic acid (racemate)]	1.3 nM	15 nM	220 nM
O=C(O)[C@@H]1[C@@H](Cn2nnc3ccccc3c2=O)CC[C@H]1C(=O)c1ccc(-c2ccc(Cl)cc2)cc1 (single isomer, unassigned; enantiomer 2) [Comparative Example A-3, (1RS,2RS,5SR)-2-[(4′-Chlorobiphenyl-4-yl)carbonyl]-5-[(4-oxo-1,2,3-benzotriazin-3(4H)-yl)methyl]cyclopentanecarboxylic acid (enantiomer 2)]	< 0.61 nM	6.2 nM	135 nM
CCCCCOc1ccc(C(=O)CC(CCn2nnc3ccccc3c2=O)C(=O)O)cc1 (racemic) [Comparative Example B-1, (+/−)-4-Oxo-2-[2-(4-oxo-1,2,3-benzotriazin-3(4H)-yl)ethyl]-4-[4-(pentyloxy)phenyl]butanoic acid (racemate)]	610 nM	1400 nM	> 40000 nM
CCCCCOc1ccc(C(=O)CC(CCn2nnc3ccccc3c2=O)C(=O)O)cc1 (single isomer, unassigned; enantiomer 1) [Comparative Example B-2, (+)-4-Oxo-2-[2-(4-oxo-1,2,3-benzotriazin-3(4H)-yl)ethyl]-4-[4-(pentyloxy)phenyl]butanoic acid (enantiomer 1)]	145 nM	525 nM	> 40000 nM

The remaining lines, values ahead:

IC50 (MMP-2 of the rat)	IC50 (MMP-7 of the mouse)	IC50 (MMP-1)	Compound
33 nM	46 nM	12000 nM	O=C(O)[C@H]1[C@H](Cn2nnc3ccccc3c2=O)CC[C@@H]1C(=O)c1ccc(OCc2ccccc2)cc1 (racemic) [Example 1, (+/−)-(1RS,2RS,5SR)-2-[4-(Benzyloxy)benzoyl]-5-[(4-oxo-1,2,3-benzotriazin-3(4H)-yl)methyl]cyclopentanecarboxylic acid (racemate)]
16.5 nM	22 nM	5800 nM	O=C(O)[C@H]1[C@H](Cn2nnc3ccccc3c2=O)CC[C@@H]1C(=O)c1ccc(OCc2ccccc2)cc1 [Example 2, (+)-(1S,2S,5R)-2-[4-(Benzyloxy)benzoyl]-5-[(4-oxo-1,2,3-benzotriazin-3(4H)-yl)methyl]cyclopentanecarboxylic acid]
